The results in this text go back to PMC5589576, “Targeting the apoptotic Mcl-1-PUMA interface with a dual-acting compound” (Oncotarget, 2017).

This assay has as its system Caspase-3, Cyto-c and Bcl-2 in A2780, MCF-7 and SMMC-7721 cells. Nature of the assay: Western blot analysis of apoptotic marker proteins. The assay is classed as cell-based. As for the experimental part: BH3 peptide of Mcl-1 (FITC-Mcl-BH3, FITC-AHx-Western blot analysis […]
-NH2) was synthesized […]
and used as fluorescence probe in the FPA competition A2780, MCF-7 and SMMC-7721 cells treated with assays. All assays were performed in the assay and without Comp8 were harvested, washed by precooled buffer (pH 7.4) composed of 20 mM Tris, 50 mM NaCl, PBS and split by RIPA lysis buffer (Thermo) containing 3 mM DTT and 2% DMSO. The FPA competition assays PMSF (protease inhibitor). Quantified protein samples were carried out in the 96-well, black, flat-bottom plates were separated by SDS-PAGE and then transferred to NC (Nunc). To check the interference effects of candidate membranes. After being blocked for 1h, all membranes compounds on the interaction between Mcl-1 and FITC- were incubated with primary antibodies against protein Mcl-BH3, solutions containing 250 nM Mcl-1 and 250 nM Caspase (1:500, Abcam), Cyto-c (1:500, Abcam) and fluorescence probes were titrated with 250 μM selected Bcl-2 (1:500, Abcam) at 4℃ overnight. […] The emission fluorescence changes were antibodies (1:10000, Jackson) for 1 h at 37°C, the signals recorded from 480 to 540 nm by TECAN Infinite M1000 were detected with ECL western blot detection system Microplate Spectrophotometer with excitation wavelength (Boster). being 432 nm. […]
(In western blotting, separated proteins are transferred to a membrane and probed.)

Turning to `O=C1N=C(N2CCN(CCO)CC2)S/C1=C\c1ccc(-c2ccccc2)cc1` [Comp8], the “changes of three apoptosis indicators (WB)” value is given as “fitted well with the characteristics of apoptosis”.
